In ChEMBL document CHEMBL1201862, “PubChem BioAssay data set” (2004):
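Tested at 5 concentrations; 48 h exposure; 96-well plates; endpoints linearly interpolated, else capped at highest concentration. Here, GI50 denotes the concentration required for 50% inhibition of growth.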 Activity calls are given as the source filed them. Cut-off read from the data, not from the text of the source: active = GI50 up to about 1.1 µM and inactive = higher.

Assays:
Experiment in all cases: DTP human tumour cell line panel, 48 h
HT-29 = system: HT-29
UACC-62 = system: UACC-62
A498 = system: A498
SNB-75 = system: SNB-75
HCT-15 = system: HCT-15
CAKI-1 = system: CAKI-1
HCC 2998 = system: HCC 2998
SK-MEL-5 = system: SK-MEL-5
EKVX = system: EKVX
DU-145 = system: DU-145
ACHN = system: ACHN
SF-295 = system: SF-295
MDA-MB-231 = system: MDA-MB-231
SF-539 = system: SF-539
786-0 = system: 786-0
NCI/ADR-RES = system: NCI/ADR-RES
MDA-MB-435 = system: MDA-MB-435
OVCAR-5 = system: OVCAR-5
UACC-257 = system: UACC-257
CCRF-CEM = system: CCRF-CEM
RXF 393 = system: RXF 393
Malme-3M = system: Malme-3M
MOLT-4 = system: MOLT-4
M14 = system: M14
T47D = system: T47D
U-251 = system: U-251
HL-60 = system: HL-60
MCF7 = system: MCF7
HOP-92 = system: HOP-92
RPMI-8226 = system: RPMI-8226
HCT-116 = system: HCT-116
PC-3 = system: PC-3
K562 = system: K562
NCI-H460 = system: NCI-H460
SNB-19 = system: SNB-19
SN12C = system: SN12C
LOX IMVI = system: LOX IMVI
NCI-H23 = system: NCI-H23
A549 = system: A549
UO-31 = system: UO-31
OVCAR-4 = system: OVCAR-4
SK-MEL-28 = system: SK-MEL-28
COLO 205 = system: COLO 205
IGROV-1 = system: IGROV-1
SK-OV-3 = system: SK-OV-3
SR = system: SR
OVCAR-3 = system: OVCAR-3
OVCAR-8 = system: OVCAR-8
SK-MEL-2 = system: SK-MEL-2
SF-268 = system: SF-268
BT-549 = system: BT-549
HOP-62 = system: HOP-62
Hs-578T = system: Hs-578T
SW-620 = system: SW-620
KM12 = system: KM12
NCI-H226 = system: NCI-H226
NCI-H522 = system: NCI-H522
TK-10 = system: TK-10

## CCCc1cn2c(/C=N/NC(=N)N)c(-c3ccc([N+](=O)[O-])cc3)nc2s1
HT-29
  GI50: 0.275 µM (active)
UACC-62
  GI50: 1.82 µM (inactive)
A498
  GI50: 5.26 µM (inactive)
SNB-75
  GI50: 1.8 µM (inactive)
HCT-15
  GI50: 1.36 µM
CAKI-1
  GI50: 1.69 µM (inactive)
HCC 2998
  GI50: 0.578 µM (active)
SK-MEL-5
  GI50: 5.81 µM (inactive)
EKVX
  GI50: 1.95 µM (inactive)
DU-145
  GI50: 1.77 µM (inactive)
ACHN
  GI50: 1.67 µM (inactive)
SF-295
  GI50: 0.912 µM (active)
MDA-MB-231
  GI50: 1.69 µM (inactive)
SF-539
  GI50: 4.88 µM (inactive)
786-0
  GI50: 0.853 µM (active)
NCI/ADR-RES
  GI50: 1.89 µM (inactive)
MDA-MB-435
  GI50: 1.63 µM (inactive)
OVCAR-5
  GI50: 1.71 µM (inactive)
UACC-257
  GI50: 1.73 µM (inactive)
CCRF-CEM
  GI50: 0.277 µM (active)
RXF 393
  GI50: 1.73 µM (inactive)
Malme-3M
  GI50: 2.5 µM (inactive)
MOLT-4
  GI50: 0.231 µM (active)
M14
  GI50: 1.93 µM (inactive)
T47D
  GI50: 1.67 µM (inactive)
U-251
  GI50: 0.769 µM (active)
HL-60
  GI50: 0.45 µM (active)
MCF7
  GI50: 1.75 µM (inactive)
HOP-92
  GI50: 6.01 µM (inactive)
RPMI-8226
  GI50: 0.45 µM (active)
HCT-116
  GI50: 0.377 µM (active)
PC-3
  GI50: 2.01 µM (inactive)
K562
  GI50: 0.286 µM (active)
NCI-H460
  GI50: 1.93 µM (inactive)
SNB-19
  GI50: 1.71 µM (inactive)
SN12C
  GI50: 1.58 µM (inactive)
LOX IMVI
  GI50: 1.39 µM (inactive)
NCI-H23
  GI50: 1.61 µM (inactive)
A549
  GI50: 1.71 µM (inactive)
UO-31
  GI50: 1.91 µM (inactive)
OVCAR-4
  GI50: 1.06 µM (active)
SK-MEL-28
  GI50: 1.85 µM (inactive)
COLO 205
  GI50: 0.891 µM (active)
IGROV-1
  GI50: 1.77 µM (inactive)
SK-OV-3
  GI50: 1.79 µM (inactive)
SR
  GI50: 0.245 µM (active)
OVCAR-3
  GI50: 0.548 µM (active)
OVCAR-8
  GI50: 1.9 µM (inactive)
SK-MEL-2
  GI50: 2.13 µM (inactive)
SF-268
  GI50: 2.16 µM (inactive)
BT-549
  GI50: 1.92 µM (inactive)
HOP-62
  GI50: 1.77 µM (inactive)
Hs-578T
  GI50: 2.33 µM (inactive)
SW-620
  GI50: 0.342 µM (active)
KM12
  GI50: 1.52 µM (inactive)
NCI-H226
  GI50: 2 µM (inactive)
NCI-H522
  GI50: 2.08 µM (inactive)
TK-10
  GI50: 1.81 µM (inactive)

## COc1cc2c(c(O)c1OC)C(O)C1CCC(=O)N1C2c1ccc2c(c1)OCO2 (configuration not stated)
HT-29
  GI50: 80.2 µM (inactive)
UACC-62
  GI50: > 100 µM (inactive)
A498
  GI50: > 100 µM (inactive)
SNB-75
  GI50: 81.3 µM (inactive)
HCT-15
  GI50: > 100 µM
CAKI-1
  GI50: > 100 µM (inactive)
HCC 2998
  GI50: > 100 µM (inactive)
EKVX
  GI50: > 100 µM (inactive)
DU-145
  GI50: > 100 µM (inactive)
ACHN
  GI50: > 100 µM (inactive)
SF-295
  GI50: > 100 µM (inactive)
MDA-MB-231
  GI50: > 100 µM (inactive)
SF-539
  GI50: > 100 µM (inactive)
786-0
  GI50: > 100 µM (inactive)
NCI/ADR-RES
  GI50: > 100 µM (inactive)
MDA-MB-435
  GI50: > 100 µM (inactive)
OVCAR-5
  GI50: > 100 µM (inactive)
UACC-257
  GI50: > 100 µM (inactive)
CCRF-CEM
  GI50: > 100 µM (inactive)
RXF 393
  GI50: > 100 µM (inactive)
Malme-3M
  GI50: > 100 µM (inactive)
MOLT-4
  GI50: > 100 µM (inactive)
M14
  GI50: > 100 µM (inactive)
T47D
  GI50: > 100 µM (inactive)
U-251
  GI50: > 100 µM (inactive)
HL-60
  GI50: > 100 µM (inactive)
MCF7
  GI50: > 100 µM (inactive)
HOP-92
  GI50: > 100 µM (inactive)
HCT-116
  GI50: > 100 µM (inactive)
PC-3
  GI50: > 100 µM (inactive)
K562
  GI50: > 100 µM (inactive)
NCI-H460
  GI50: > 100 µM (inactive)
SNB-19
  GI50: > 100 µM (inactive)
SN12C
  GI50: > 100 µM (inactive)
LOX IMVI
  GI50: > 100 µM (inactive)
NCI-H23
  GI50: > 100 µM (inactive)
A549
  GI50: > 100 µM (inactive)
UO-31
  GI50: > 100 µM (inactive)
OVCAR-4
  GI50: > 100 µM (inactive)
SK-MEL-28
  GI50: > 100 µM (inactive)
COLO 205
  GI50: > 100 µM (inactive)
IGROV-1
  GI50: > 100 µM (inactive)
SK-OV-3
  GI50: > 100 µM (inactive)
SR
  GI50: > 100 µM (inactive)
OVCAR-3
  GI50: > 100 µM (inactive)
OVCAR-8
  GI50: > 100 µM (inactive)
SF-268
  GI50: > 100 µM (inactive)
BT-549
  GI50: > 100 µM (inactive)
HOP-62
  GI50: > 100 µM (inactive)
SW-620
  GI50: > 100 µM (inactive)
KM12
  GI50: > 100 µM (inactive)
NCI-H226
  GI50: > 100 µM (inactive)
NCI-H522
  GI50: > 100 µM (inactive)
TK-10
  GI50: > 100 µM (inactive)
